Key:
[1] = xn = mol fraction of the nth substance listed; conditions: 100 kPa, Liquid; for viscosity: Falling or rolling sphere viscometry; for mass density: Vibrating tube method

CC(C)(C)O [2-methylpropan-2-ol] + Cc1ccccc1
[1]
Conditions | mass density, 298.15 K [kg/m3] | mass density, 318.15 K [kg/m3] | viscosity, 298.15 K [mPa·s] | viscosity, 318.15 K [mPa·s]
x2 = 0.0822 | 786.59 | 765.3 | 2.579 | 1.171
x2 = 0.1676 | – | 771.88 | – | 0.899
x2 = 0.1678 | 792.96 | – | 1.625 | –
x2 = 0.2564 | 799.78 | – | 1.184 | –
x2 = 0.2565 | – | 778.96 | – | 0.744
x2 = 0.3488 | 807.09 | – | 0.991 | –
x2 = 0.3491 | – | 786.64 | – | 0.649
x2 = 0.4458 | 815 | – | 0.868 | –
x2 = 0.4459 | – | 794.84 | – | 0.582
x2 = 0.5467 | – | 803.43 | – | 0.528
x2 = 0.5468 | 823.34 | – | 0.744 | –
x2 = 0.6524 | – | 812.43 | – | 0.486
x2 = 0.6525 | 832.08 | – | 0.624 | –
x2 = 0.7621 | 841.26 | – | 0.562 | –
x2 = 0.7627 | – | 821.89 | – | 0.461
x2 = 0.8787 | 851.02 | – | 0.561 | –
x2 = 0.8788 | – | 832.02 | – | 0.454

CC(C)(C)O [2-methylpropan-2-ol]
100 kPa
Conditions | mass density [kg/m3] | viscosity [mPa·s]
298.15 K, Metastable liquid, Falling or rolling sphere viscometry | – | 4.426
298.15 K, Metastable liquid, Vibrating tube method | 780.99 | –
318.15 K, Falling or rolling sphere viscometry, Liquid | – | 1.706
318.15 K, Vibrating tube method, Liquid | 759.66 | –

Cc1ccccc1 [toluene]
100 kPa, Liquid
Conditions | mass density, 298.15 K [kg/m3] | mass density, 318.15 K [kg/m3] | viscosity, 298.15 K [mPa·s] | viscosity, 318.15 K [mPa·s]
Falling or rolling sphere viscometry | – | – | 0.533 | 0.447
Vibrating tube method | 862.01 | 843.51 | – | –

Cc1ccccc1 [toluene] + CCO
[1]
Conditions | mass density [kg/m3] | viscosity [mPa·s]
298.15 K, x2 = 0.1003 | 857.16 | –
298.15 K, x2 = 0.1005 | – | 0.549
298.15 K, x2 = 0.2002 | 852.38 | –
298.15 K, x2 = 0.2013 | – | 0.558
298.15 K, x2 = 0.3 | 847.27 | –
298.15 K, x2 = 0.3002 | – | 0.577
298.15 K, x2 = 0.4 | 841.65 | –
298.15 K, x2 = 0.4003 | – | 0.606
298.15 K, x2 = 0.5001 | – | 0.644
298.15 K, x2 = 0.5002 | 835.35 | –
298.15 K, x2 = 0.6001 | 828.22 | 0.693
298.15 K, x2 = 0.7 | 819.95 | 0.754
298.15 K, x2 = 0.8 | 810.35 | 0.831
298.15 K, x2 = 0.9 | 798.87 | 0.926
318.15 K, x2 = 0.1004 | 838.1 | 0.439
318.15 K, x2 = 0.2002 | 833.2 | –
318.15 K, x2 = 0.2004 | – | 0.442
318.15 K, x2 = 0.2997 | – | 0.449
318.15 K, x2 = 0.3003 | 828.01 | –
318.15 K, x2 = 0.4003 | 822.39 | –
318.15 K, x2 = 0.4007 | – | 0.464
318.15 K, x2 = 0.5 | 816.2 | –
318.15 K, x2 = 0.5007 | – | 0.483
318.15 K, x2 = 0.5998 | – | 0.508
318.15 K, x2 = 0.6001 | 809.19 | –
318.15 K, x2 = 0.6998 | – | 0.542
318.15 K, x2 = 0.7001 | 801.21 | –
318.15 K, x2 = 0.7996 | 791.97 | –
318.15 K, x2 = 0.7999 | – | 0.585
318.15 K, x2 = 0.8998 | – | 0.641
318.15 K, x2 = 0.9 | 780.91 | –

CCO [ethanol]
100 kPa, Liquid
Conditions | mass density, 298.15 K [kg/m3] | mass density, 318.15 K [kg/m3] | viscosity, 298.15 K [mPa·s] | viscosity, 318.15 K [mPa·s]
Falling or rolling sphere viscometry | – | – | 1.084 | 0.752
Vibrating tube method | 785.01 | 767.54 | – | –

CC(C)(C)O [2-methylpropan-2-ol] + CCO
[1]
Conditions | mass density, 298.15 K [kg/m3] | mass density, 318.15 K [kg/m3] | viscosity, 298.15 K [mPa·s] | viscosity, 318.15 K [mPa·s]
x2 = 0.045 | 781.92 | 761.37 | 4.314 | 1.724
x2 = 0.082 | 782.51 | 762.26 | 4.195 | 1.721
x2 = 0.1516 | – | 763.35 | – | 1.692
x2 = 0.1518 | 783.11 | – | 3.939 | –
x2 = 0.287 | 783.69 | – | 3.395 | –
x2 = 0.2872 | – | 764.69 | – | 1.577
x2 = 0.4083 | – | 765.58 | – | 1.442
x2 = 0.4085 | 783.95 | – | 2.86 | –
x2 = 0.5174 | 784.15 | 766.2 | 2.384 | 1.308
x2 = 0.6167 | 784.31 | – | 2.026 | –
x2 = 0.6168 | – | 766.59 | – | 1.188
x2 = 0.707 | 784.42 | – | 1.749 | –
x2 = 0.7072 | – | 766.91 | – | 1.078
x2 = 0.7896 | 784.55 | 767.15 | 1.532 | 0.983
x2 = 0.8654 | 784.72 | – | 1.349 | –
x2 = 0.8656 | – | 767.35 | – | 0.895
x2 = 0.9355 | 784.85 | 767.46 | 1.205 | 0.817

— the NIST ThermoML archive (doi:10.1021/acs.jced.6b00096)
